Patent publication US11708562B2, “Differentiation of human embryonic stem cells” (Janssen Biotech, Inc., priority 2006, dated 2023)

Test system: H9P83 cells on MATRIGEL and H9P44 cells on MEFs
Assay: Microarray analysis of gene expression after definitive endoderm formation (Table IV)
Assay type: cell-based, human
Procedure: Controls for each group included cells plated on […]-coated dishes and cultured in MEF-conditioned medium or cells plated on MEFs and cultured in ES medium.
Sample preparation, hybridization, and image analysis were performed according to the Affymetrix Human Genome U133 Plus 2.0 Array. Following normalization and a log transformation, data analysis was performed using OmniViz® software (MA) and […] (VizXLabs, WA). The variability within each treatment and among the different treatments was compared using the Pearson correlation coefficient. […] Significant differences in gene expression between the samples were evaluated using analysis of variance and an F-test with adjusted P-value (Benjamini and Hochberg correction) of ≤0.05. Only genes with a present call were included in the analysis.

[1] = microarray, H9P44 on MEFs, DE stage, 5 days of treatment
[2] = microarray, H9P83 on Matrigel, DE stage, 5 days of treatment

Substance: Activin A: a member of the TGFβ superfamily; growth factor (R&D Systems) used to differentiate human embryonic stem cells
- SCG5 (NM_003020) gene expression (H9P83 on Matrigel-DE stage, after 5 days of treatment, undifferentiated H9P83 on Matrigel 4.03): 2.53
- C20orf118 (BF437747) gene expression (H9P83 on Matrigel-DE stage, after 5 days of treatment, undifferentiated H9P83 on Matrigel 4.26): 1.99
- C20orf118 (AV715309) gene expression (H9P83 on Matrigel-DE stage, after 5 days of treatment, undifferentiated H9P83 on Matrigel 4.28): 1.89
- LECT1 (NM_007015) gene expression (H9P83 on Matrigel-DE stage, after 5 days of treatment, undifferentiated H9P83 on Matrigel 4.83): 2.27
- SCNN1G (AI985987) gene expression (H9P83 on Matrigel-DE stage, after 5 days of treatment, undifferentiated H9P83 on Matrigel −0.28): −0.99
- PCDH8 (NM_002590) gene expression (H9P83 on Matrigel-DE stage, after 5 days of treatment, undifferentiated H9P83 on Matrigel −0.80): −0.83
- TMEM16A (NM_018043) gene expression (H9P83 on Matrigel-DE stage, after 5 days of treatment, undifferentiated H9P83 on Matrigel −0.90): −1.93
- ATP5S (BE968806) gene expression (H9P83 on Matrigel-DE stage, after 5 days of treatment, undifferentiated H9P83 on Matrigel −1.15): −3.03
- SDK2 (N23651) gene expression (H9P83 on Matrigel-DE stage, after 5 days of treatment, undifferentiated H9P83 on Matrigel −1.16): −2.65
- PAK7 (AB040812) gene expression (H9P83 on Matrigel-DE stage, after 5 days of treatment, undifferentiated H9P83 on Matrigel −1.37): −3.89
- IFIH1 (NM_022168) gene expression (H9P83 on Matrigel-DE stage, after 5 days of treatment, undifferentiated H9P83 on Matrigel −2.03): −2.76
- gene expression ADAMTS5 (NM_007038), H9P44 on MEFs-DE stage [1]: 1.11
- gene expression AF116676 (PRO1957 mRNA), H9P44 on MEFs-DE stage [1]: 4.23
- gene expression AI016316 (ESTs), H9P44 on MEFs-DE stage [1]: 0.25
- gene expression AI222435 (ESTs), H9P44 on MEFs-DE stage [1]: −0.33
- gene expression AK057525 (cDNA FLJ32963), H9P44 on MEFs-DE stage [1]: 4.80
- gene expression BE327172 (v-jun avian sarcoma virus 17 oncogene homolog), H9P44 on MEFs-DE stage [1]: 3.57
- gene expression C9orf19 (AA284532), H9P44 on MEFs-DE stage [1]: 4.93
- gene expression CD99 (U82164), H9P44 on MEFs-DE stage [1]: 6.36
- gene expression CDKN1A (NM_000389), H9P44 on MEFs-DE stage [1]: 4.16
- gene expression CNN1 (NM_001299), H9P44 on MEFs-DE stage [1]: 5.14
- gene expression COL22A1 (AW241910), H9P44 on MEFs-DE stage [1]: 1.90
- gene expression CREB5 (AI819043), H9P44 on MEFs-DE stage [1]: 1.80
- gene expression CXCL1 (NM_001511), H9P44 on MEFs-DE stage [1]: 2.39
- gene expression DNAJB2 (NM_006736), H9P44 on MEFs-DE stage [1]: 3.75
- gene expression DNAJC15 (NM_013238), H9P44 on MEFs-DE stage [1]: 5.58
- gene expression EDG3 (AA534817), H9P44 on MEFs-DE stage [1]: 4.58
- gene expression EMP3 (NM_001425), H9P44 on MEFs-DE stage [1]: 3.13
- gene expression FLNC (NM_001458), H9P44 on MEFs-DE stage [1]: 3.39
- gene expression FN1 (AK026737), H9P44 on MEFs-DE stage [1]: 7.39
- gene expression FN1 (BC005858), H9P44 on MEFs-DE stage [1]: 7.37
- gene expression GADD45A (NM_001924), H9P44 on MEFs-DE stage [1]: 5.38
- gene expression GNA14 (NM_004297), H9P44 on MEFs-DE stage [1]: 2.95
- gene expression HIST1H2BK (BC000893), H9P44 on MEFs-DE stage [1]: 4.81
- gene expression IGSF4 (NM_014333), H9P44 on MEFs-DE stage [1]: 3.79
- gene expression JUN (BG491844), H9P44 on MEFs-DE stage [1]: 5.91
- gene expression KLF6 (AB017493), H9P44 on MEFs-DE stage [1]: 4.87
- gene expression MFAP5 (U37283), H9P44 on MEFs-DE stage [1]: 1.36
- gene expression MYL4 (M36172), H9P44 on MEFs-DE stage [1]: 4.11
- gene expression PALLD (AK025843), H9P44 on MEFs-DE stage [1]: 3.29
- gene expression PDGFC (AB033831), H9P44 on MEFs-DE stage [1]: 0.21
- gene expression PLK2 (NM_006622), H9P44 on MEFs-DE stage [1]: 5.19
- gene expression ST3GAL1 (NM_003033), H9P44 on MEFs-DE stage [1]: 2.74
- gene expression TRDN (AA192306), H9P44 on MEFs-DE stage [1]: 0.57
- gene expression TTC29 (AF345910), H9P44 on MEFs-DE stage [1]: 0.91
- gene expression X58851 (MLC1emb gene), H9P44 on MEFs-DE stage [1]: 4.04
- gene expression ADAMTS5 (NM_007038), H9P83 on Matrigel-DE stage [2]: 1.80
- gene expression AF116676 (PRO1957 mRNA), H9P83 on Matrigel-DE stage [2]: 3.31
- gene expression AI016316 (ESTs), H9P83 on Matrigel-DE stage [2]: 1.19
- gene expression AI222435 (ESTs), H9P83 on Matrigel-DE stage [2]: −0.73
- gene expression AK057525 (cDNA FLJ32963), H9P83 on Matrigel-DE stage [2]: 4.45
- gene expression BE327172 (v-jun avian sarcoma virus 17 oncogene homolog), H9P83 on Matrigel-DE stage [2]: 2.94
- gene expression C9orf19 (AA284532), H9P83 on Matrigel-DE stage [2]: 4.12
- gene expression CD99 (U82164), H9P83 on Matrigel-DE stage [2]: 5.69
- gene expression CDKN1A (NM_000389), H9P83 on Matrigel-DE stage [2]: 4.20
- gene expression CNN1 (NM_001299), H9P83 on Matrigel-DE stage [2]: 5.75
- gene expression COL22A1 (AW241910), H9P83 on Matrigel-DE stage [2]: 1.15
- gene expression CREB5 (AI819043), H9P83 on Matrigel-DE stage [2]: 2.63
- gene expression CXCL1 (NM_001511), H9P83 on Matrigel-DE stage [2]: 2.95
- gene expression DNAJB2 (NM_006736), H9P83 on Matrigel-DE stage [2]: 3.46
- gene expression DNAJC15 (NM_013238), H9P83 on Matrigel-DE stage [2]: 3.79
- gene expression EDG3 (AA534817), H9P83 on Matrigel-DE stage [2]: 3.28
- gene expression EMP3 (NM_001425), H9P83 on Matrigel-DE stage [2]: 3.90
- gene expression FLNC (NM_001458), H9P83 on Matrigel-DE stage [2]: 4.17
- gene expression FN1 (AK026737), H9P83 on Matrigel-DE stage [2]: 6.85
- gene expression FN1 (BC005858), H9P83 on Matrigel-DE stage [2]: 6.86
- gene expression GADD45A (NM_001924), H9P83 on Matrigel-DE stage [2]: 5.04
- gene expression GNA14 (NM_004297), H9P83 on Matrigel-DE stage [2]: 4.52
- gene expression HIST1H2BK (BC000893), H9P83 on Matrigel-DE stage [2]: 3.99
- gene expression IGSF4 (NM_014333), H9P83 on Matrigel-DE stage [2]: 4.12
- gene expression JUN (BG491844), H9P83 on Matrigel-DE stage [2]: 5.45
- gene expression KLF6 (AB017493), H9P83 on Matrigel-DE stage [2]: 4.02
- gene expression MFAP5 (U37283), H9P83 on Matrigel-DE stage [2]: 1.87
- gene expression MYL4 (M36172), H9P83 on Matrigel-DE stage [2]: 3.30
- gene expression PALLD (AK025843), H9P83 on Matrigel-DE stage [2]: 3.38
- gene expression PDGFC (AB033831), H9P83 on Matrigel-DE stage [2]: 0.63
- gene expression PLK2 (NM_006622), H9P83 on Matrigel-DE stage [2]: 5.88
- gene expression ST3GAL1 (NM_003033), H9P83 on Matrigel-DE stage [2]: 1.68
- gene expression TRDN (AA192306), H9P83 on Matrigel-DE stage [2]: 0.02
- gene expression TTC29 (AF345910), H9P83 on Matrigel-DE stage [2]: 1.53
- gene expression X58851 (MLC1emb gene), H9P83 on Matrigel-DE stage [2]: 2.75
